These results are taken from US10550105B2 (Ribon Therapeutics Inc., priority 2018, dated 2020).

In general, IC50 refers to the point on the concentration scale where inhibition reaches its midpoint.

Molecules are shown by their SMILES.

Chain of PARP7 (Q7Z3E1 whole entry): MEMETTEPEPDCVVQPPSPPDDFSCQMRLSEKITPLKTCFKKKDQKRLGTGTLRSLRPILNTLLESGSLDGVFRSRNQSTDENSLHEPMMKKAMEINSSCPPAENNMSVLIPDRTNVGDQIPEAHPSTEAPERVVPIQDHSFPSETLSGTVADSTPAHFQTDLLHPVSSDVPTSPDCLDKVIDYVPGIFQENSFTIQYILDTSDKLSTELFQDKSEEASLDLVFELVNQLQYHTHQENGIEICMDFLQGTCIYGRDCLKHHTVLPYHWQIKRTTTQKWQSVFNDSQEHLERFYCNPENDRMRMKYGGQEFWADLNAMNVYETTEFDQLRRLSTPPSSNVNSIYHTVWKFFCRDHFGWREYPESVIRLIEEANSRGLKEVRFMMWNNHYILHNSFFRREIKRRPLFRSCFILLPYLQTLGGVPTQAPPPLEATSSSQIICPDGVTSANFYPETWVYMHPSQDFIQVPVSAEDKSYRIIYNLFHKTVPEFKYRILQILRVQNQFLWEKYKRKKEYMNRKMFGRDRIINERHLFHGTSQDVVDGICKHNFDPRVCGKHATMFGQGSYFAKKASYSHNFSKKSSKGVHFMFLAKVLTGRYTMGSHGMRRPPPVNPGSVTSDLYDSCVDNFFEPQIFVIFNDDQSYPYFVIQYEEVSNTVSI

The target of the assay is PARP7 (Homo sapiens (Human), UniProt Q7Z3E1). In words: Enzymatic assay for inhibition of PARP7: TR-FRET displacement of biotinylated Probe A from the TIPARP active site. It counts as binding. To be noted: Table A-1. Put shortly:
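Compound dose-response series were incubated with TIPARP and biotinylated Probe A, with a final 30 min step at 25 °C. TR-FRET was read at 320 nm excitation, 615/665 nm emission and 90 μs delay, using the 665/615 ratio to measure complex formation. % inhibition was fitted with a floating or fixed (1) Hill coefficient.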
(In general: Time-resolved FRET reads energy transfer from a long-lived donor to a nearby acceptor.)
In turn, `C[C@@H](COCCC(=O)N1CCN(c2ncc(C(F)(F)F)cn2)CC1)N(C)c1cn[nH]c(=O)c1C(F)(F)F` [Example 641, (S)-5-(Methyl(1-(3-oxo-3-(4-(5-(trifluoromethyl)pyrimidin-2-yl)piperazin-1-yl)propoxy)propan-2-yl)amino)-4-(trifluoromethyl)pyridazin-3(2H)-one] came in with an IC50 of 100 to 1000 nM.

For `O=C(CC1CCC(COc2cn[nH]c(=O)c2C(F)(F)F)N1)N1CCN(c2ncc(C(F)(F)F)cn2)CC1` (stereo not drawn) [Example 642, 5-((5-(2-Oxo-2-(4-(5-(trifluoromethyl)pyrimidin-2-yl)piperazin-1-yl)ethyl)pyrrolidin-2-yl)methoxy)-4-(trifluoromethyl)pyridazin-3(2H)-one], the IC50 was 100 to 1000 nM.

For the compound `O=C(CCOC[C@H](CCO)Nc1cn[nH]c(=O)c1C(F)(F)F)N1CCN(c2ncc(C(F)(F)F)cn2)CC1` [Example 643, (S)-5-((4-Hydroxy-1-(3-oxo-3-(4-(5-(trifluoromethyl)pyrimidin-2-yl)piperazin-1-yl)propoxy)butan-2-yl)amino)-4-(trifluoromethyl)pyridazin-3(2H)-one], the IC50 was < 100 nM.

For the compound `C[C@@H](COCCC(=O)N1CCN(c2cnc(Cl)cn2)CC1)Nc1cn[nH]c(=O)c1C(F)(F)F` [Example 644, (S)-5-((1-(3-(4-(5-Chloropyrazin-2-yl)piperazin-1-yl)-3-oxopropoxy)propan-2-yl)amino)-4-(trifluoromethyl)pyridazin-3(2H)-one], the IC50 was < 100 nM.

On to `C[C@@H](CN(C)CCC(=O)N1CCN(c2ccc(C#N)cn2)CC1)Oc1cn[nH]c(=O)c1C(F)(F)F` [Example 645, (S)-6-(4-(3-(Methyl(2-((6-oxo-5-(trifluoromethyl)-1,6-dihydropyridazin-4-yl)oxy)propyl)amino)propanoyl)piperazin-1-yl)nicotinonitrile], for which the IC50 is < 100 nM.

In the case of `C[C@@H](COCCC(=O)N1CC=C(c2ccc(C#N)cn2)CC1)Oc1cn[nH]c(=O)c1C(F)(F)F` [Example 646, (S)-1′-(3-(2-((6-Oxo-5-(trifluoromethyl)-1,6-dihydropyridazin-4-yl)oxy)propoxy)propanoyl)-1′,2′,3′,6′-tetrahydro-[2,4′-bipyridine]-5-carbonitrile], the IC50 was < 100 nM.

On to `O=C(CCOC[C@H](Cc1ccncc1)Nc1cn[nH]c(=O)c1C(F)(F)F)N1CCN(c2ncc(C(F)(F)F)cn2)CC1` [Example 647, (S)-5-((1-(3-Oxo-3-(4-(5-(trifluoromethyl)pyrimidin-2-yl)piperazin-1-yl)propoxy)-3-(pyridin-4-yl)propan-2-yl)amino)-4-(trifluoromethyl)pyridazin-3(2H)-one], for which the IC50 was < 100 nM.

On to `O=C(CCOC[C@H](CC1CCNCC1)Nc1cn[nH]c(=O)c1C(F)(F)F)N1CCN(c2ncc(C(F)(F)F)cn2)CC1` [Example 648, (S)-5-((1-(3-Oxo-3-(4-(5-(trifluoromethyl)pyrimidin-2-yl)piperazin-1-yl)propoxy)-3-(piperidin-4-yl)propan-2-yl)amino)-4-(trifluoromethyl)pyridazin-3(2H)-one], for which the 50% inhibitory concentration (IC50) is ≥ 1000 nM.

Consider `O=C(CCOC[C@@H](CC1CCNCC1)Nc1cn[nH]c(=O)c1C(F)(F)F)N1CCN(c2ncc(C(F)(F)F)cn2)CC1` [Example 649, (R)-5-((1-(3-Oxo-3-(4-(5-(trifluoromethyl)pyrimidin-2-yl)piperazin-1-yl)propoxy)-3-(piperidin-4-yl)propan-2-yl)amino)-4-(trifluoromethyl)pyridazin-3(2H)-one], for which the IC50 was < 100 nM.

For `C[C@@H](COCCC(=O)N1CCN(c2ccc(C#N)cn2)CC1)Oc1cn[nH]c(=O)c1Br` [Example 650, (S)-6-(4-(3-(2-((5-Bromo-6-oxo-1,6-dihydropyridazin-4-yl)oxy)propoxy)propanoyl)piperazin-1-yl)nicotinonitrile], the 50% inhibitory concentration (IC50) is < 100 nM.

For `COC[C@@H](COCCC(=O)N1CCN(c2ncc(C(F)(F)F)cn2)CC1)Nc1cn[nH]c(=O)c1Cl` [Example 651, (S)-4-Chloro-5-((1-methoxy-3-(3-oxo-3-(4-(5-(trifluoromethyl)pyrimidin-2-yl)piperazin-1-yl)propoxy)propan-2-yl)amino)pyridazin-3(2H)-one], the IC50 was < 100 nM.

As to `C[C@@H](COCCC(=O)N1CC=C(c2ncc(C(F)(F)F)cn2)CC1)Nc1cn[nH]c(=O)c1C(F)(F)F` [Example 652, (S)-5-((1-(3-Oxo-3-(4-(5-(trifluoromethyl)pyrimidin-2-yl)-3,6-dihydropyridin-1(2H)-yl)propoxy)propan-2-yl)amino)-4-(trifluoromethyl)pyridazin-3(2H)-one], the IC50 was < 100 nM.

With `O=C(CCOC[C@@H](Nc1cn[nH]c(=O)c1C(F)(F)F)C1CCNCC1)N1CCN(c2ncc(C(F)(F)F)cn2)CC1` [Example 653, (S)-5-((2-(3-Oxo-3-(4-(5-(trifluoromethyl)pyrimidin-2-yl)piperazin-1-yl)propoxy)-1-(piperidin-4-yl)ethyl)amino)-4-(trifluoromethyl)pyridazin-3(2H)-one], the IC50 was ≥ 1000 nM.

On to `C[C@@H](COCCC(=O)N1CCN(c2ccc(C#N)cn2)CC1)Sc1cn[nH]c(=O)c1C(F)(F)F` [Example 655, (S)-6-(4-(3-(2-((6-Oxo-5-(trifluoromethyl)-1,6-dihydropyridazin-4-yl)thio)propoxy)propanoyl)piperazin-1-yl)nicotinonitrile], for which the 50% inhibitory concentration (IC50) is < 100 nM.

`C[C@@H](COCCC(=O)N1CCN(c2ccc(CC#N)cn2)CC1)Oc1cn[nH]c(=O)c1C(F)(F)F` [Example 656, (S)-2-(6-(4-(3-(2-((6-Oxo-5-(trifluoromethyl)-1,6-dihydropyridazin-4-yl)oxy)propoxy)propanoyl)piperazin-1-yl)pyridin-3-yl)acetonitrile]: the IC50 is < 100 nM.

Regarding `CC[C@@H](COCCC(=O)N1CCN(c2ncc(C(F)(F)F)cn2)CC1)Oc1cn[nH]c(=O)c1Br` [Example 657, (S)-4-Bromo-5-((1-(3-oxo-3-(4-(5-(trifluoromethyl)pyrimidin-2-yl)piperazin-1-yl)propoxy)butan-2-yl)oxy)pyridazin-3(2H)-one], the IC50 is < 100 nM.

Consider `C[C@@H](COCCC(=O)N1CCC(c2ccc(C#N)cn2)CC1)Oc1cn[nH]c(=O)c1C(F)(F)F` [Example 658, (S)-6-(1-(3-(2-((6-Oxo-5-(trifluoromethyl)-1,6-dihydropyridazin-4-yl)oxy)propoxy)propanoyl)piperidin-4-yl)nicotinonitrile], for which the IC50 is < 100 nM.

With `O=C(CCOC[C@H](CO)Nc1cn[nH]c(=O)c1Br)N1CCN(c2ncc(C(F)(F)F)cn2)CC1` [Example 660, (S)-4-Bromo-5-((1-hydroxy-3-(3-oxo-3-(4-(5-(trifluoromethyl)pyrimidin-2-yl)piperazin-1-yl)propoxy)propan-2-yl)amino)pyridazin-3(2H)-one], the IC50 was < 100 nM.

Regarding `C[C@@H](COCCC(=O)N1CCN(c2cnc(C(F)(F)F)cn2)CC1)Oc1cn[nH]c(=O)c1C(F)(F)F` [Example 662, (S)-5-((1-(3-Oxo-3-(4-(5-(trifluoromethyl)pyrazin-2-yl)piperazin-1-yl)propoxy)propan-2-yl)oxy)-4-(trifluoromethyl)pyridazin-3(2H)-one], the IC50 is < 100 nM.

For `N#Cc1ccc(N2CCN(C(=O)CCOC[C@H](CN3CCOCC3)Oc3cn[nH]c(=O)c3C(F)(F)F)CC2)nc1` [Example 663, (S)-6-(4-(3-(3-Morpholino-2-((6-oxo-5-(trifluoromethyl)-1,6-dihydropyridazin-4-yl)oxy)propoxy)propanoyl)piperazin-1-yl)nicotinonitrile], the IC50 is < 100 nM.

Regarding `C[C@@H](COCCC(=O)N1CCC(c2ncc(C(F)(F)F)cn2)CC1)Nc1cn[nH]c(=O)c1C(F)(F)F` [Example 664, (S)-5-((1-(3-Oxo-3-(4-(5-(trifluoromethyl)pyrimidin-2-yl)piperidin-1-yl)propoxy)propan-2-yl)amino)-4-(trifluoromethyl)pyridazin-3(2H)-one], the IC50 is < 100 nM.

`O=C(CCOC[C@H](CO)Nc1cn[nH]c(=O)c1C(F)(F)F)N1CCN(c2ncc(Cl)cn2)CC1` [Example 665, (S)-5-((1-(3-(4-(5-Chloropyrimidin-2-yl)piperazin-1-yl)-3-oxopropoxy)-3-hydroxypropan-2-yl)amino)-4-(trifluoromethyl)pyridazin-3(2H)-one]: the IC50 was < 100 nM.

With `COC[C@@H](COCCC(=O)N1CCN(c2ncc(C(F)(F)F)cn2)CC1)Oc1cn[nH]c(=O)c1Br` [Example 666, (S)-4-Bromo-5-((1-methoxy-3-(3-oxo-3-(4-(5-(trifluoromethyl)pyrimidin-2-yl)piperazin-1-yl)propoxy)propan-2-yl)oxy)pyridazin-3(2H)-one], the IC50 was < 100 nM.

As to `COC[C@H](COCCC(=O)N1CCN(c2ncc(C(F)(F)F)cn2)CC1)Oc1cn[nH]c(=O)c1Br` [Example 667, (R)-4-Bromo-5-((1-methoxy-3-(3-oxo-3-(4-(5-(trifluoromethyl)pyrimidin-2-yl)piperazin-1-yl)propoxy)propan-2-yl)oxy)pyridazin-3(2H)-one], the IC50 is ≥ 1000 nM.

`COC[C@@H](COCCC(=O)N1CCN(c2ncc(C(F)(F)F)cn2)CC1)Nc1cn[nH]c(=O)c1Br` [Example 668, (S)-4-Bromo-5-((1-methoxy-3-(3-oxo-3-(4-(5-(trifluoromethyl)pyrimidin-2-yl)piperazin-1-yl)propoxy)propan-2-yl)amino)pyridazin-3(2H)-one]: the IC50 was < 100 nM.

Turning to `C[C@@H](COCCC(=O)N1CCCN(c2ncc(C(F)(F)F)cn2)CC1)Nc1cn[nH]c(=O)c1C(F)(F)F` [Example 669, (S)-5-((1-(3-Oxo-3-(4-(5-(trifluoromethyl)pyrimidin-2-yl)-1,4-diazepan-1-yl)propoxy)propan-2-yl)amino)-4-(trifluoromethyl)pyridazin-3(2H)-one], the IC50 is < 100 nM.

As for `Cc1cnc(N2CCN(C(=O)CCOC[C@H](C)Nc3cn[nH]c(=O)c3C(F)(F)F)CC2)nc1` [Example 670, (S)-5-((1-(3-(4-(5-Methylpyrimidin-2-yl)piperazin-1-yl)-3-oxopropoxy)propan-2-yl)amino)-4-(trifluoromethyl)pyridazin-3(2H)-one], the IC50 was < 100 nM.
